Data set [1] deals with T1, α1G T-type calcium channel (Homo sapiens, UniProt O43497).
T1 construct: host or cells: HEK293
The data set can be described thus: Assay for % inhibiting activity against T-type calcium channel using FDSS6000 (fluo-3 calcium imaging, KCl activation). Type of data set: cell-based. How it is done:
In the present invention, in order to examine an efficient inhibitor against the T-type calcium channel, a primary assay for T-type calcium channel inhibiting activity was conducted by a high-efficient assay using FDSS6000, wherein mammal HEK293 cell lines (originated from human kidney carcinoma cells) that specifically express α1G of the T-type calcium channel was used for primary assay. Through the primary assay, compounds that show meaningful inhibition effects were selected. The selected compounds were used in a second assay for T-type calcium channel inhibiting activity using an electrophysiological whole cell patch clamp method, wherein mammal HEK293 cell lines (originated from human kidney carcinoma cells) that specifically express α1G of the T-type calcium channel was used for the second assay. Mibefradil, which had been developed as a T-type calcium channel inhibitor, was used as a reference.
At 12-24 hours before being used for this assay, cells of HEK293 cell line (α1G cell line: KCTC 10519BP, Korean Collection for Type Cultures), which stably express α1G T-type calcium channel and Kir2.1, were sub-cultured in a poly-L-lysine treated 96-well plate with the density of 4×10^4 per well using a 96-well cell dispenser (Titertek). On the day of assay, the 96-well plate to which the cells were attached was washed three times with HEPES buffer solution (150 mM of NaCl, 5 mM of KCl, 1 mM of MgCl2, 2 mM of CaCl2, 10 mM of HEPES, 10 mM of glucose; pH 7.4) using a 96-well plate automatic washing device (Bio Tek), then reacted with HEPES buffer solution containing 5 μM fluo-3/AM and 0.001% Pluronic F-127 at room temperature for 1 hour, to label with fluorescent dye, and then further washed two times with HEPES buffer solution.
Thereafter, at 10 minutes before the measurement using device FDSS6000, washing with HEPES buffer solution containing 10 mM CaCl2 was conducted once more, and the final volume was adjusted to 81 μl. Besides the above 96-well plate containing the cells, two additional drug 96-well plates were provided, wherein the 96-well plates contained an inhibiting drug and KCl (final concentration: 75 mM) for activating the T-type calcium channel, respectively. Since most of cell-based HTS devices are equipped with a liquid application system for injection of drug, but have no liquid sucking system, the inhibiting drug to be tested and KCl were respectively provided at a five-times higher concentration in 10 mM CaCl2 HEPES buffer solution at the amount of 27 μl, diluted by five-times at the final cell plate volume of 135 μl, and then used in this test. The concrete method of measurement using FDSS6000 was as follows. After recording the reference value of 20 seconds, the change of intracellular Ca^2+ concentration that was induced by treatment of the inhibiting drug to be tested for 75 seconds followed by administration of KCl was measured, wherein the percentage (%) inhibition effect of the test drug, through estimating the area of ratio value of 340/380 in the control without treatment of the test drug, was 100%. As a reference drug, 10 μM mibefradil was used.
For accurate calcium imaging, the light source of 4 xenon lamps in FDSS6000 were radiated to selectively expose the cells to the excitation wavelength (340 nm and 380 nm) by a computer-controlled filter wheel. Data was obtained at intervals of 1.23 seconds. The emitter fluorescence light inflowed through a long-pass filter was obtained as an average 340/380 ratio value for each well in the 96-wells by using a CCD camera and a digital fluorescence analyzer in FDSS6000. All image data and analyses were obtained by using a FDSS6000-exclusive program from Hamamatsu Photonics.
The obtained results are shown in Table 2 (the results from the compounds according to the examples of the present invention) and Table 3 (the results from the compounds according to the comparative example where R6 is a phenyl group) [FDSS (% inhibition) 10 μM].

[2] abbreviates: 10 μM, FDSS (% inhibition), comparative compounds where R6 is a phenyl group, read-out: FDSS.
The mark [3] stands for this setting: HEK293, 10 μM, HEK293 cells stably expressing α1G T-type calcium channel and Kir2.1, compounds of the examples, read-out: FDSS (% inhibition)/10uM.

SMILES strings stand for the structures. Read-outs that look alike come from different tables or passages of the source.

T1 sequence (O43497 whole entry): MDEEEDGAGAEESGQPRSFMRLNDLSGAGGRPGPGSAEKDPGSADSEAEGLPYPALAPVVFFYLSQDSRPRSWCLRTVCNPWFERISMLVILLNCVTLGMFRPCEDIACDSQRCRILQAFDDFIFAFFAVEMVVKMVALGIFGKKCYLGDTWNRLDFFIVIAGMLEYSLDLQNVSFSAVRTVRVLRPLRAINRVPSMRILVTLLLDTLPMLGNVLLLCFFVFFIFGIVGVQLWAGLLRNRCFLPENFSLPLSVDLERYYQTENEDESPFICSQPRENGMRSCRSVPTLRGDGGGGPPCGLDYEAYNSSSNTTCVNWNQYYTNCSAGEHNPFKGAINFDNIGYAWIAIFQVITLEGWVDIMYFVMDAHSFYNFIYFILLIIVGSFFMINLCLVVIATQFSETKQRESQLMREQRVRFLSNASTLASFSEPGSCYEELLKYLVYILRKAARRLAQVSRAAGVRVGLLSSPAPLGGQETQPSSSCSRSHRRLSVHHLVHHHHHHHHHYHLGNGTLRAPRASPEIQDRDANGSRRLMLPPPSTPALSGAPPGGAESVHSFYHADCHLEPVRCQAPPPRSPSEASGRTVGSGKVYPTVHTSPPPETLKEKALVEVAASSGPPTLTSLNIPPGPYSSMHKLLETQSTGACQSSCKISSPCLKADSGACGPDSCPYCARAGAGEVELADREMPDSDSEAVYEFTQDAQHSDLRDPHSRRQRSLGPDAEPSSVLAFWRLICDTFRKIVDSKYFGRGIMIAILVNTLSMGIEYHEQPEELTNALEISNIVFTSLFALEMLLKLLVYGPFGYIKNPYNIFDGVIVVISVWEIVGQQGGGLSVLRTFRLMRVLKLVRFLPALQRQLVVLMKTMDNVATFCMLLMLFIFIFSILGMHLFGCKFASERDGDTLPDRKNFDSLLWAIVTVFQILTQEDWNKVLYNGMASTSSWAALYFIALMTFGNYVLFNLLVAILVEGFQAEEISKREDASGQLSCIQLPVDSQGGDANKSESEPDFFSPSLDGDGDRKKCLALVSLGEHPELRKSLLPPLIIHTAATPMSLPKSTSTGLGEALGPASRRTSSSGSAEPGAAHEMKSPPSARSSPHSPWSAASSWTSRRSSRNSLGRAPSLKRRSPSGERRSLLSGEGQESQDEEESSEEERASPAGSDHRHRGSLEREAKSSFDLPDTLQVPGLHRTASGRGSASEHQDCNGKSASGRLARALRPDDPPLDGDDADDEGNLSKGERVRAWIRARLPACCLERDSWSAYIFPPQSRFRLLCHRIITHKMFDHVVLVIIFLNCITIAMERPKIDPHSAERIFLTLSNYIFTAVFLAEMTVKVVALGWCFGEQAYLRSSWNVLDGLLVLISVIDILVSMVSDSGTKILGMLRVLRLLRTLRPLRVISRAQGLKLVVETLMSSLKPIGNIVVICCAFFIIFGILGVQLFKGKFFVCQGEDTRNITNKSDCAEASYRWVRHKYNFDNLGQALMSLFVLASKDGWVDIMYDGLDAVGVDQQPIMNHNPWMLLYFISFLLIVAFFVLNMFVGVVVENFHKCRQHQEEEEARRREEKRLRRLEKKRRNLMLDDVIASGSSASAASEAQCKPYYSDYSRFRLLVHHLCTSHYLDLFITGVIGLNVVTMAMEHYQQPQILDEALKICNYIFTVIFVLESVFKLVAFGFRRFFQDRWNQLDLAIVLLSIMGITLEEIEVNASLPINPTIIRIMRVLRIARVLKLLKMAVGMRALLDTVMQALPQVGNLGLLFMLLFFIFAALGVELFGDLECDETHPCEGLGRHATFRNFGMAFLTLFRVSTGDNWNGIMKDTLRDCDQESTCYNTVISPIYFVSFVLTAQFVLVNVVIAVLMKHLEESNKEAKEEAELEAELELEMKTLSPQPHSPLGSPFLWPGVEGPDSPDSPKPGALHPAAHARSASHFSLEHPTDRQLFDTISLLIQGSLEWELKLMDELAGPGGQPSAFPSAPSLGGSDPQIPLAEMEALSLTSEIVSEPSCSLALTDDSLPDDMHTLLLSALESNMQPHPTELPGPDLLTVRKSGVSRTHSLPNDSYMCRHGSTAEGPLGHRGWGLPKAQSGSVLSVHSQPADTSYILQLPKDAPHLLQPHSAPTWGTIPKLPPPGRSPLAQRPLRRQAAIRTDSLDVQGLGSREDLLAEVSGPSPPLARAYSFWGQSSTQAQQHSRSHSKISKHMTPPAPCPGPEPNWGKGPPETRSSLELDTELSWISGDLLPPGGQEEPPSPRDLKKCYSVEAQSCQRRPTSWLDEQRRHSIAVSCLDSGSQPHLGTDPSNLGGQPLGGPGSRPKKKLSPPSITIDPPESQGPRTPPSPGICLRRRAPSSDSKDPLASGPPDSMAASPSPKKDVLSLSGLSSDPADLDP

On to `CC(C)Oc1cccc(N=C2SCC(CC(=O)Nc3ccc(Cl)cc3)N2C)c1.Cl` (stereo not drawn) [KHG21653, [2-(3-isopropoxyphenylimino)-3-methyl-1,3-thiazolidine-4-yl]-N-(4-chlorophenyl)-acetamide hydrochloride], for which the melting point fell in the range of 201 to 203 °C. In data set [1] (setting [2]), the inhibition at 10 µM is -2.17%.
The matching figures for `CCCCc1ccc(N=C2SCC(CC(=O)Nc3ccc(Cl)cc3)N2C)cc1.Cl` (stereo not drawn) [KHG21654, [2-(4-n-butylphenylimino)-3-methyl-1,3-thiazolidine-4-yl]-N-(4-chlorophenyl)-acetamide hydrochloride]: 239 to 241 °C and -1.13%.
The matching figures for `CN1C(=Nc2cccc([N+](=O)[O-])c2)SCC1CC(=O)Nc1ccc(Cl)cc1.Cl` (stereo not drawn) [KHG21655, [2-(3-nitrophenylimino)-3-methyl-1,3-thiazolidine-4-yl]-N-(4-chlorophenyl)-acetamide hydrochloride]: 228 °C and 4.68%.
The like results for `CC(C)c1ccc(NC(=O)CC2CSC(=Nc3ccc(C(F)(F)F)cc3)N2C)cc1.Cl` (stereo not drawn) [KHG21943, [2-(4-trifluoromethylphenylimino)-3-methyl-1,3-thiazolidine-4-yl]-N-(4-isopropylphenyl)-acetamide hydrochloride] were, in that order, 238 to 242.8 °C and -2.56%.
`CC(C)Oc1cc(N=C2SCC(CC(=O)Nc3ccc(C(C)C)cc3)N2C)c(F)cc1Cl.Cl` (stereo not drawn) [KHG21944, [2-(4-chloro-5-isopropoxy-2-fluorophenylimino)-3-methyl-1,3-thiazolidine-4-yl]-N-(4-isopropylphenyl)-acetamide hydrochloride] had a melting point of 190 to 194 °C. For the same compound, the inhibition at 10 µM in data set [1] (setting [2]) worked out at 5.89%.
`CC(C)c1ccc(NC(=O)CC2CSC(=Nc3ccc(C#N)cc3)N2C)cc1.Cl` (stereo not drawn) [KHG21945, [2-(4-cyanophenylimino)-3-methyl-1,3-thiazolidine-4-yl]-N-(4-isopropylphenyl)-acetamide hydrochloride]: the melting point was in the range of 234 to 235 °C. Besides, in data set [1] (setting [2]), the inhibition at 10 µM worked out at 7.71%.
The matching figures for `CC(C)c1ccc(NC(=O)CC2CSC(=Nc3ccc(F)c(Cl)c3)N2C)cc1.Cl` (stereo not drawn) [KHG21947, [2-(3-chloro-4-fluorophenylimino)-3-methyl-1,3-thiazolidine-4-yl]-N-(4-isopropylphenyl)-acetamide hydrochloride]: 239 to 241 °C and 23.9%.
The matching figures for `CC(C)c1ccc(NC(=O)CC2CSC(=Nc3cccc(Br)c3)N2C)cc1.Cl` (stereo not drawn) [KHG21949, [2-(3-bromophenylimino)-3-methyl-1,3-thiazolidine-4-yl]-N-(4-isopropylphenyl)-acetamide hydrochloride]: 198 to 201 °C and 5.41%.
The matching figures for `CN1C(=Nc2ccc(Cl)cc2)SCC1CC(=O)Nc1ccc(Cl)cc1F.Cl` (stereo not drawn) [KHG23064, [2-(4-chlorophenylimino)-3-methyl-1,3-thiazolidine-4-yl]-N-(4-chloro-2-fluorophenyl)-acetamide hydrochloride]: 239 to 240 °C and 7.37%.
For the compound `CN1C(=Nc2ccc(Br)cc2)SCC1CC(=O)Nc1ccc(Cl)cc1F.Cl` (stereo not drawn) [KHG23065, [2-(4-bromophenylimino)-3-methyl-1,3-thiazolidine-4-yl]-N-(4-chloro-2-fluorophenyl)-acetamide hydrochloride], the melting point was 239 to 240 °C. Also, the inhibition at 10 µM in data set [1] (setting [2]) amounted to 3.57%.
The compound `CCCCc1ccc(N=C2SCC(CC(=O)Nc3ccc(Cl)cc3F)N2C)cc1.Cl` (stereo not drawn) [KHG23066, [2-(4-n-butylphenylimino)-3-methyl-1,3-thiazolidine-4-yl]-N-(4-chloro-2-fluorophenyl)-acetamide hydrochloride] came in with a melting point of 223 to 224 °C. In addition, the inhibition at 10 µM in data set [1] (setting [2]) was found to be 1.3%.
`CN1C(=Nc2ccc(C#N)cc2)SCC1CC(=O)Nc1ccc(Cl)cc1F.Cl` (stereo not drawn) [KHG23067, [2-(4-cyanophenylimino)-3-methyl-1,3-thiazolidine-4-yl]-N-(4-chloro-2-fluorophenyl)-acetamide hydrochloride] yielded a melting point of 136 to 137 °C. In data set [1] (setting [2]), the inhibition at 10 µM is -2.73%.
The like results for `CN1C(=Nc2ccc(C(F)(F)F)cc2)SCC1CC(=O)Nc1ccc(Cl)cc1F.Cl` (stereo not drawn) [KHG23068, [2-(4-trifluoromethylphenylimino)-3-methyl-1,3-thiazolidine-4-yl]-N-(4-chloro-2-fluorophenyl)-acetamide hydrochloride] were, in that order, 222 to 223 °C and 5.76%.
The like results for `Cc1ccc(N=C2SCC(CC(=O)Nc3ccc(Cl)cc3F)N2C)cc1.Cl` (stereo not drawn) [KHG23069, [2-(4-methylphenylimino)-3-methyl-1,3-thiazolidine-4-yl]-N-(4-chloro-2-fluorophenyl)-acetamide hydrochloride] were, in that order, 243 to 245 °C and 4.33%.
Take `CN1C(=Nc2ccc(OC(F)(F)F)cc2)SCC1CC(=O)Nc1ccc(Cl)cc1F.Cl` (stereo not drawn) [KHG23070, [2-(4-trifluoromethoxyphenylimino)-3-methyl-1,3-thiazolidine-4-yl]-N-(4-chloro-2-fluorophenyl)-acetamide hydrochloride]: the melting point fell in the range of 236 to 237 °C. For the same compound, in data set [1] (setting [2]), the inhibition at 10 µM is 7.44%.
The like results for `CC(C)c1ccc(N=C2SCC(CC(=O)Nc3ccc(Cl)cc3F)N2C)cc1.Cl` (stereo not drawn) [KHG23071, [2-(4-isopropylphenylimino)-3-methyl-1,3-thiazolidine-4-yl]-N-(4-chloro-2-fluorophenyl)-acetamide hydrochloride] were, in that order, 237 to 238 °C and 15.5%.
As for `CCc1ccc(N=C2SCC(CC(=O)Nc3ccc(Cl)cc3F)N2C)cc1.Cl` (stereo not drawn) [KHG23072, [2-(4-ethylphenylimino)-3-methyl-1,3-thiazolidine-4-yl]-N-(4-chloro-2-fluorophenyl)-acetamide hydrochloride], the melting point came to 242 °C. The inhibition at 10 µM in data set [1] (setting [2]) amounted to 29.4%.
Compound `CN1C(=Nc2ccc(-c3ccccc3)cc2)SCC1CC(=O)Nc1ccc(Cl)cc1F.Cl` (stereo not drawn) [KHG23073, [2-(4-phenylphenylimino)-3-methyl-1,3-thiazolidine-4-yl]-N-(4-chloro-2-fluorophenyl)-acetamide hydrochloride] came in with a melting point of 222 to 223 °C. Moreover, the inhibition at 10 µM in data set [1] (setting [2]) was 28.3%.
Take `COc1ccc(NC(=O)CC2CSC(=NC3CCCCC3)N2C)cc1Cl.Cl` (stereo not drawn) [KHG24070, (2-cyclohexylimino-3-methyl-1,3-thiazolidine-4-yl)-N-(3-chloro-4-methoxyphenyl)-acetamide hydrochloride]: the melting point lay within 233.5 to 235 °C. Also, in data set [1] (setting [3]), the inhibition at 10 µM was 53%.
The like results for `Cc1cc(Cl)c(NC(=O)CC2CSC(=NC3CCCCC3)N2C)cc1Cl.Cl` (stereo not drawn) [KHG24071, (2-cyclohexylimino-3-methyl-1,3-thiazolidine-4-yl)-N-(2,5-dichloro-4-methylphenyl)-acetamide hydrochloride] were, in that order, 146 °C and 52.1%.
The matching figures for `CN1C(=NC2CCCCC2)SCC1CC(=O)Nc1ccc(C(C)(C)C)cc1.Cl` (stereo not drawn) [KHG24073, (2-cyclohexylimino-3-methyl-1,3-thiazolidine-4-yl)-N-(4-t-butylphenyl)-acetamide hydrochloride]: 234 to 235.5 °C and 57.3%.

The record behind these values is patent publication US7998989B2, “2-Imino-1,3-thiazoline-based compounds and T-type calcium channel inhibitors containing the same” (Korea Institute of Science and Technology, priority 2007, dated 2011).
